How the values were obtained:
Format in all cases: cell-based
[1] = system: Mouse ES cells (J1 strain); assay: Induction of Hcrt expression in neural differentiation from mouse ES cells, SDIA differentiation culture system, RT-PCR
Protocol: Mouse ES cells (J1 strain) which had been maintained in a medium for an ES cell [DMEM (Wako) added with 15% FBS (Biowest), 1 mM sodium pyruvate (Invitrogen), […] (Invitrogen), 2 mM L-glutamine (Invitrogen), 1 mM non essential amino acid (Invitrogen), 50 U/ml penicillin/50 μg/ml streptomycin (Invitrogen), 2000 U leukemia inhibitory factor (Chemicon, CA)] were seeded on a 10 cm culture dish so that the cell count became 1×10^5 cells per culture dish on which PA6 stromal cells had been seeded in advance, and differentiation induction was performed in a medium for neural differentiation [Glasgow MEM (Invitrogen) added with 10% KSR (Invitrogen), […] (Invitrogen), 1 mM non essential amino acid (Invitrogen), 50 U/ml penicillin/50 μg/ml streptomycin (Invitrogen)] for 10 days. On 4th and 7th days of differentiation culturing, the medium was exchanged. In addition, from 4th day of differentiation culturing, 5 nM recombinant human BMP4 (Wako) was added (FIG. 1). On 10th day of differentiation culturing, cells were collected and pelletized by a centrifugation operation to remove the culture medium. Thereafter, the pellets were immediately frozen in liquid nitrogen and stored at −80° C. until use.
The total RNA was extracted from the collected cells using RNeasy plus Mini Kit (QIAGEN). Then, a reverse transcription reaction was performed in a reaction liquid containing 1 μg of the total RNA, and Oligo (dT) using SuperScript III First Strand Synthesis System (Invitrogen) to synthesize a cDNA.
A PCR reaction was performed on a 10 μl scale, 1 U of LA-Taq DNA Polymerase (Takara) was added to 0.5 μl of a cDNA, 5 μl of 2×GC Buffer I, each 200 μM of dNTP, 1.5 mM MgCl2, and each primer having a final concentration of 0.2 μM, thermal denaturation was performed at 95° C. for 3 minutes, and the reaction was performed under the condition of (30 seconds at 95° C., 30 seconds at 55° C., and 30 seconds at 72° C.)×35 cycles (20 cycles in the case of Actb). The primers used are shown below.
Each PCR product was electrophoresed on a 2% agarose gel, stained with ethidium bromide, and a band was observed by UV irradiation.

[2] = system: Mouse ES cells (J1 strain); assay: Hcrt expression in mouse ES cells, SFEB/gfCDM differentiation culture system, RT-PCR; conditions: 1.0 mM from 7th day of differentiation culturing
Protocol: Mouse ES cells (J1 strain) which had been maintained in a medium for an ES cell were seeded on a 96-well low adhering round-bottom culture dish (Nunc) so that the cell count became 10,000 cells per well, and cultured with gfCDM [IMDM/F12 (Invitrogen) added with 5 mg/ml BSA (SIGMA), 450 μM Monothioglycerol (Wako), 1× chemically defined lipid concentrate (Invitrogen), 50 U/ml penicillin/50 μg/ml streptomycin] for 7 days. The cells were cultured in 150 μl of a medium per well. On 7th day of differentiation culturing, the medium was exchanged with a DFK medium [DMEM/F12 (Invitrogen) added with 7 g/1 glucose, 10% KSR, 50 U/ml penicillin/50 μg/ml streptomycin], and on 10th day, half the amount of the medium was exchanged with a DFNB medium [7 g/1 glucose, 1×N2 (Wako), 1×B27 (Invitrogen)] containing 10 ng/ml CNTF. On 13th day of culturing, cells were detached with 0.05% trypsin/EDTA, seeded on a culture dish (Falcon) which had been treated with poly-D-lysine/laminin so that the cell count became 4.8×10^6 cells per 10 cm culture dish, and cultured in a DFNB medium containing 10% FBS, 10 ng/ml CNTF, 50 ng/ml BDNF and 50 ng/ml NT3. The medium was exchanged every 3 days. On 25th day of differentiation culturing, cells were collected and pelletized by a centrifugation operation to remove the culture medium. Thereafter, the pellets were immediately frozen in liquid nitrogen, and stored at −80° C. until use.
The analysis was performed by the same method as that of Example 1.

[3] = system: human iPS cell strain 201B7; assay: Hcrt expression with ManNAc plus Sirt inhibitor and Ogt inhibitor, neural differentiation from human iPS cell, RT-PCR; conditions: ManNAc 1.0 mM from 0th day, EX-527 50 nM and/or BADGP 5 mM on 14th day, collected 20th day; FIG. 10
Protocol: A human iPS cell strain 201B7 (HSP0001) was obtained from Riken BioResource Center via National BioResource Project (MEXT, Japan). The human iPS cell was maintained on a feeder layer of a mitomycin C-treated STO/Neo resistant/LIF (SNL) feeder cell in a primate ES medium (ReproCELL) complemented with 5 ng/mL recombinant human bFGF (Wako). The human iPS cell was co-cultured with PA6 for 20 days, for differentiation induction into a nerve with a SIDA and BMP4 system. From 7th day, 5 nM BMP4 was complemented. A detailed protocol of differentiation induction into a nerve cell is shown in the lower column of FIG. 11. From the initiation of differentiation culturing (0th day), ManNAc was added to a neural differentiation medium so that the concentration became 1.0 mM, and on 7th, 10th and 14th days of differentiation culturing, the medium was exchanged. In addition, from 7th day of differentiation culturing, 5 nM recombinant human BMP4 (Wako) was added. On 14th day of differentiation culturing, EX-527 (SIGMA-ALDRICH) was added to a neural differentiation medium so that the concentration became 50 nM, or BADGP (SIGMA-ALDRICH) was added to a neural differentiation medium so that the concentration became 5 mM, and on 20th day of differentiation culturing, cells were collected and subjected to RT-PCR. The conditions of RT-PCR are the same as those of Example 1.

[4] = system: human iPS cell strain 201B7; assay: Orexin-positive cells in neurally differentiated colony induced from human iPS cell, immunostaining; conditions: differentiation as in Example 5; anti-human orexin antibody fluorescence
Protocol: Cells which had been differentiation-induced on a 4-well culture plate by the method described in Example 5 were fixed with a 4% paraformalin solution, and cellular membrane permeability treatment was performed with a 0.2% Triton-X100 solution. The cells were treated with a 5% bovine serum albumin solution, followed by treatment with a primary antibody (anti-human orexin antibody, anti-human tubulin III antibody) at 4° C. overnight. After a reaction with a secondary labeled antibody (Alex-Fluor 488-labeled donkey anti-goat antibody, Alexa-Fluor 594-labeled rabbit anti-mouse antibody), a nuclear DNA was stained with DAPI.

[5] = system: human-derived pluripotent stem cell; assay: Hcrt expression in human-derived pluripotent stem cell (similar effect to Experiment 1); conditions: stated as similar to Experiment 1

## CC(=O)N[C@@H]1C(O)O[C@H](CO)[C@@H](O)[C@@H]1O (stereo partly drawn) [ManNAc, N-acetyl-D-mannosamine]
[1]; 1.0 mM ManNAc, added on 4th to 10th, 7th to 10th and 0th to 10th days versus 0th to 4th and 0th to 7th days
  Level of Hcrt expression by addition period: high expression was observed in the section in which ManNAc was added to a medium on and after 7th day of differentiation
[1]; 1.0 mM, addition time varied, FIG. 3
  Expression of Hcrt with changed time of addition: expression of Hcrt was observed only in a ManNAc-added section at any addition time
[1]; added from initiation of differentiation culturing at 0.2 and 1.0 mM, cells collected on 10th day, FIG. 2
  Expression of an orexin gene (Hcrt): expression of Hcrt was recognized only in a ManNAc-added section
[2]
  Level of Hcrt expression compared with Neu5Ac-added section: high expression of Hcrt was observed
[2]; cells collected on 25th day, FIG. 5
  Expression of Hcrt: expression of Hcrt was recognized
[3]
  Expression of an orexin gene (Hcrt): recognized in a ManNAc-added section and an EX-527-added section to the same extent
[4]
  ratio of orexin-positive cells in a neurally differentiated colony: 4.9%
[5]
  Expression of Hcrt in a human-derived pluripotent stem cell: a similar effect was obtained

From patent US9480695B2, “Methods for inducing orexin neurons and agent for treating narcolepsy or eating disorder” (THE UNIVERSITY OF TOKYO, priority 2011, dated 2016)
